Each block holds one molecule with its values, some of them ahead of it. Activity calls are given as the source filed them. The calls are words filed in the database; no cut-off is given here.
Columns and labels:
[1] = biological target: 5-hydroxytryptamine receptor 2A (Homo sapiens, UniProt P28223); experiment: Displacement of [3H]-ketanserin from human 5-HT2A receptor expressed in CHO-K1 cell membranes after 60 mins by microbeta scintillation counting analysis
Mus musculus [2] = experiment: Antidepressant-like activity in CD-1 mouse assessed as reduction in immobility at 10 mg/kg, ip pretreated for 30 mins and measured after 6 mins by force swim test relative to control; assay type: functional; design: scale not given: the % may be the effect or the level left
[3] = Mutagenicity in Salmonella typhimurium TA100 at 5 ug/plate preincubated for 20 mins followed by addition of top agar and measured after 48 hrs by Ames test; assay type: toxicity; details: salmonella enterica subsp. enterica serovar typhimurium
Mus musculus [4] = experiment: Antidepressant-like activity in albino Swiss CD-1 mouse assessed as reduction in immobility at 20 mg/kg, ip pretreated for 30 mins and measured after 6 mins by force swim test relative to control; assay type: functional; design: scale not given: the % may be the effect or the level left
[5] = biological target: Serotonin 2 (5-HT2) receptor (Rattus norvegicus) (UniProt P30994+P08909+P14842); experiment: Displacement of [3H]ketanserin from 5-HT2 receptor in Wistar rat brain cortex membrane at 10 uM after 40 mins by scintillation counting analysis relative to control; assay type: cell membranes
Mus musculus [6] = experiment: Antidepressant-like activity in albino Swiss CD-1 mouse assessed as reduction in immobility at 5 mg/kg, ip administered 30 mins prior to test and measured after 6 mins by force swim test relative to control; assay type: functional; design: scale not given: the % may be the effect or the level left
[7] = AUC (0 to t) in CD-1 mouse plasma at 5 mg/kg, ip measured up to 480 mins by LC/ESI-MS/MS analysis; assay type: ADME, organism-based; design: dose 5 mg/kg, time < 8 hr, route intraperitoneal
[8] = Terminal half life in CD-1 mouse plasma at 5 mg/kg, ip measured up to 480 mins by LC/ESI-MS/MS analysis; assay type: ADME, organism-based; details: read-out: beta t1/2
[9] = MRT in CD-1 mouse plasma at 5 mg/kg, ip measured up to 480 mins by LC/ESI-MS/MS analysis; assay type: ADME, organism-based
[10] = Cmax in CD-1 mouse plasma at 5 mg/kg, ip measured up to 480 mins by LC/ESI-MS/MS analysis; assay type: ADME, organism-based; design: dose 5 mg/kg, route intraperitoneal
[11] = Tmax in CD-1 mouse plasma at 5 mg/kg, ip measured up to 480 mins by LC/ESI-MS/MS analysis; assay type: ADME, organism-based
[12] = Apparent volume of distribution in CD-1 mouse plasma at 5 mg/kg, ip measured up to 480 mins by LC/ESI-MS/MS analysis; assay type: ADME, organism-based
[13] = Apparent clearance in CD-1 mouse plasma at 5 mg/kg, ip measured up to 480 mins by LC/ESI-MS/MS analysis; assay type: ADME, organism-based
[14] = Ratio of drug uptake in CD-1 mouse brain to plasma at 5 mg/kg, ip measured up to 480 mins by LC/ESI-MS/MS analysis; assay type: ADME, organism-based; details: read-out: BPR
[15] = AUC (0 to total) in CD-1 mouse brain at 5 mg/kg, ip measured up to 480 mins by LC/ESI-MS/MS analysis; assay type: ADME, organism-based; details: in vivo, 8 h
[16] = Terminal half life in CD-1 mouse brain at 5 mg/kg, ip measured up to 480 mins by LC/ESI-MS/MS analysis; assay type: ADME, organism-based; details: read-out: beta t1/2
[17] = MRT in CD-1 mouse brain at 5 mg/kg, ip measured up to 480 mins by LC/ESI-MS/MS analysis; assay type: ADME, organism-based
[18] = Cmax in CD-1 mouse brain at 5 mg/kg, ip measured up to 480 mins by LC/ESI-MS/MS analysis; assay type: ADME, organism-based; design: dose 5 mg/kg, route intraperitoneal
[19] = Tmax in CD-1 mouse brain at 5 mg/kg, ip measured up to 480 mins by LC/ESI-MS/MS analysis; assay type: ADME, organism-based
[20] = Mutagenicity in Salmonella typhimurium TA100 at 50 ug/plate preincubated for 20 mins followed by addition of top agar and measured after 48 hrs by Ames test; assay type: toxicity; details: salmonella enterica subsp. enterica serovar typhimurium
[21] = Mutagenicity in Salmonella typhimurium TA100 at 250 ug/plate preincubated for 20 mins followed by addition of top agar and measured after 48 hrs by Ames test; assay type: toxicity; details: salmonella enterica subsp. enterica serovar typhimurium
[22] = Mutagenicity in Salmonella typhimurium TA100 at 500 ug/plate preincubated for 20 mins followed by addition of top agar and measured after 48 hrs by Ames test; assay type: toxicity; details: salmonella enterica subsp. enterica serovar typhimurium
[23] = Mutagenicity in Salmonella typhimurium TA98 at 5 ug/plate preincubated for 20 mins followed by addition of top agar and measured after 48 hrs by Ames test; assay type: toxicity; details: salmonella enterica subsp. enterica serovar typhimurium
[24] = Mutagenicity in Salmonella typhimurium TA98 at 50 ug/plate preincubated for 20 mins followed by addition of top agar and measured after 48 hrs by Ames test; assay type: toxicity; details: salmonella enterica subsp. enterica serovar typhimurium
[25] = Mutagenicity in Salmonella typhimurium TA102 at 5 ug/plate preincubated for 20 mins followed by addition of top agar and measured after 48 hrs by Ames test; assay type: toxicity; details: salmonella enterica subsp. enterica serovar typhimurium
[26] = Mutagenicity in Salmonella typhimurium TA102 at 50 ug/plate preincubated for 20 mins followed by addition of top agar and measured after 48 hrs by Ames test; assay type: toxicity; details: salmonella enterica subsp. enterica serovar typhimurium
[27] = Drug metabolism in mouse liver microsomes assessed as metabolite formation by measuring retention time at 20 uM after 30 to 60 mins in presence of NADP by UPLC/MS analysis; assay type: ADME, Microsome
Mus musculus [28] = experiment: Antidepressant-like activity in Swiss CD-1 mouse assessed as reduction in immobility at 10 mg/kg, ip pretreated for 30 mins and measured after 6 mins by force swim test; assay type: functional, organism-based
[29] = Mutagenicity in Salmonella typhimurium TA100 preincubated for 20 mins followed by addition of top agar and measured after 48 hrs by Ames test; assay type: toxicity; details: salmonella enterica subsp. enterica serovar typhimurium
Mus musculus [30] = experiment: Anxiolytic activity in Swiss CD-1 mouse assessed as increase in number of punished crossings at 5 mg/kg, ip administered 30 mins prior to test and measured for 60 secs by four-plate test relative to control; assay type: functional
[31] = Mutagenicity in Salmonella typhimurium TA98 at 2.5 ug/plate preincubated for 20 mins followed by addition of top agar and measured after 48 hrs by Ames test; assay type: toxicity; details: salmonella enterica subsp. enterica serovar typhimurium
Mus musculus [32] = experiment: Antidepressant-like activity in albino Swiss CD-1 mouse assessed as reduction in immobility at 10 mg/kg, ip pretreated for 30 mins and measured after 6 mins by force swim test relative to control; assay type: functional; design: scale not given: the % may be the effect or the level left
Mus musculus [33] = experiment: Anxiolytic activity in albino Swiss CD-1 mouse assessed as increase in number of punished crossings at 5 mg/kg, ip administered 30 mins prior to test by four-plate test relative to control; assay type: functional
Mus musculus [34] = experiment: Anxiolytic activity in albino Swiss CD-1 mouse assessed as increase in number of punished crossings at 20 mg/kg, ip administered 30 mins prior to test by four-plate test relative to control; assay type: functional
[35] = Mutagenicity in Salmonella typhimurium TA98 at 250 ug/plate preincubated for 20 mins followed by addition of top agar and measured after 48 hrs by Ames test; assay type: toxicity; details: salmonella enterica subsp. enterica serovar typhimurium
[36] = Mutagenicity in Salmonella typhimurium TA98 at 500 ug/plate preincubated for 20 mins followed by addition of top agar and measured after 48 hrs by Ames test; assay type: toxicity; details: salmonella enterica subsp. enterica serovar typhimurium
[37] = Mutagenicity in Salmonella typhimurium TA102 at 250 ug/plate preincubated for 20 mins followed by addition of top agar and measured after 48 hrs by Ames test; assay type: toxicity; details: salmonella enterica subsp. enterica serovar typhimurium
[38] = Mutagenicity in Salmonella typhimurium TA102 at 500 ug/plate preincubated for 20 mins followed by addition of top agar and measured after 48 hrs by Ames test; assay type: toxicity; details: salmonella enterica subsp. enterica serovar typhimurium

Chain of Serotonin 2 (5-HT2) receptor (Rattus norvegicus) (P08909 whole entry, looked up): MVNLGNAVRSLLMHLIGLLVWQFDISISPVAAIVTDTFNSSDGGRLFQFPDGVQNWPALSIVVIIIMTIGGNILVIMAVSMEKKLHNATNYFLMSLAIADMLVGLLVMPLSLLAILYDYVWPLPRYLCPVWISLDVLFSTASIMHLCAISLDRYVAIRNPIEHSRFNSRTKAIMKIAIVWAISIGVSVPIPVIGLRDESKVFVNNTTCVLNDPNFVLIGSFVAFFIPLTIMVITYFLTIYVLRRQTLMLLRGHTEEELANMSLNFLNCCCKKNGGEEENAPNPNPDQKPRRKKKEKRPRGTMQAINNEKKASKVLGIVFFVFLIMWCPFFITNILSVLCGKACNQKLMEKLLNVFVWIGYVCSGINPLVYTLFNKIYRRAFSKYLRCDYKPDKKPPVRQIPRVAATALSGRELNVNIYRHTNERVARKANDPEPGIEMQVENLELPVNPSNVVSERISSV
Chain of Serotonin 2 (5-HT2) receptor (Rattus norvegicus) (P14842 whole entry, looked up): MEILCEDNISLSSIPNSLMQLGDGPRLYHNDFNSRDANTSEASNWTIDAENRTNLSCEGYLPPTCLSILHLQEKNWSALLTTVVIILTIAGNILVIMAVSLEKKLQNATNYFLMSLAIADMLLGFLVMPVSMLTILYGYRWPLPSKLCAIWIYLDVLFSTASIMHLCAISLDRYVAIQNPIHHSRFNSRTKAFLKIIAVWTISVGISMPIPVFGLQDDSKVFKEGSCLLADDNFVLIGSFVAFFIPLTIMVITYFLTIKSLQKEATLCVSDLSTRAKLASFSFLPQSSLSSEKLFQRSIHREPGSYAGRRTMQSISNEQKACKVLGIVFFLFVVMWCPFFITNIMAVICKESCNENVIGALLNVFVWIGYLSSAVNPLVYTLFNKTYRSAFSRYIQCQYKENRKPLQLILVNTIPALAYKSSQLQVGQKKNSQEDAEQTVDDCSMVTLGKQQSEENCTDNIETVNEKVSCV
Chain of Serotonin 2 (5-HT2) receptor (Rattus norvegicus) (P30994 whole entry, looked up): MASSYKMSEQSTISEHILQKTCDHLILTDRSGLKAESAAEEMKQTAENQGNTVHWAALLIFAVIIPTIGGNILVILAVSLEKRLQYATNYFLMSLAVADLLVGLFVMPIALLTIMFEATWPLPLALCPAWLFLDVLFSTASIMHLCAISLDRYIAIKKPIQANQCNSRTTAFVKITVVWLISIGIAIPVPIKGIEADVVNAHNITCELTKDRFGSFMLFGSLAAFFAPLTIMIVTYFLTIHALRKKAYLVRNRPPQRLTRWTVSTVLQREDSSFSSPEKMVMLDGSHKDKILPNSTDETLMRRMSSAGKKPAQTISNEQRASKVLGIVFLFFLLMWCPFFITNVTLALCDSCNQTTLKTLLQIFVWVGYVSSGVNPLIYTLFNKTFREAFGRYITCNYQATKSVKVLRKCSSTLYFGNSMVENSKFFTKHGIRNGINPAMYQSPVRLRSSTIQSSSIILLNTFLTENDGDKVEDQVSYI
Chain of 5-hydroxytryptamine receptor 2A (P28223 whole entry): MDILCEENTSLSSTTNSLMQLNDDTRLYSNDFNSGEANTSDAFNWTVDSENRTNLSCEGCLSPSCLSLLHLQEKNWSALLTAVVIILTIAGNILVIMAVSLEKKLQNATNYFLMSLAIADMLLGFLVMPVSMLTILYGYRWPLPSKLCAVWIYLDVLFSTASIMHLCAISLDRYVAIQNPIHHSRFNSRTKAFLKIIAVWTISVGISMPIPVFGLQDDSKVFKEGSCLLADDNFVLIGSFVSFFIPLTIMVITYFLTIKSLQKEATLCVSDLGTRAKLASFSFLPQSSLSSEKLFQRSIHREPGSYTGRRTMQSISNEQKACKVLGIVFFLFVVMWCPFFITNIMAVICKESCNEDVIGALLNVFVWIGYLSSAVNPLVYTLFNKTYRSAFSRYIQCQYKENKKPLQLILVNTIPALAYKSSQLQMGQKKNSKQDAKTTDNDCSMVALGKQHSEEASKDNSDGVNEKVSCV

SMILES: COc1ccc2c(=O)c3cccc(CN4CCN(c5ccccc5OC)CC4)c3oc2c1.Cl
- Ki [1]: 2180 nM
- Activity (Mus musculus [2]): 24%

SMILES: [N-]=[N+]=[N-].[Na+] [SODIUM AZIDE]
- Activity_index [3]: 2.26

SMILES: COc1ccc(OCCCN2CCN(Cc3cccc4c(=O)c5ccc(OC)cc5oc34)CC2)cc1
- inhibition [5]: 38%

SMILES: CN1CCN(Cc2cccc3c(=O)c4ccc(Cl)cc4oc23)CC1.Cl.Cl
- Activity (Mus musculus [4]): 28%
- Activity (Mus musculus [30]): 100%

SMILES: Nc1ccc([N+](=O)[O-])cc1N
- Activity_index [31]: 10.79

SMILES: COc1ccc2c(=O)c3cccc(CN4CCN(c5ccccc5)CC4)c3oc2c1
- inhibition [5]: 91%

SMILES: CCOC(=O)N1CCN(Cc2cccc3c(=O)c4ccc(OC)cc4oc23)CC1.Cl.Cl
- Activity (Mus musculus [32]): 50.2%
- inhibition [5]: 22%
- Activity (Mus musculus [33]): 70.1%
- Activity (Mus musculus [34]): 55.3%
- AUC(0-t) at 8 h [7]: 481 ng·h/mL
- half-life [8]: 184 min
- MRT [9]: 60.5 min
- Cmax [10]: 468 ng/mL
- Tmax [11]: 15 min
- Vd/F [12]: 43.8 L/kg
- CL/F [13]: 165 mL/min/kg
- Kp at 8 h [14]: 2.86
- AUCt [15]: 82715 ng·min/g
- half-life [16]: 72 min
- MRT [17]: 74.6 min
- Cmax [18]: 936 ng/mL
- Tmax [19]: 30 min
- Activity_index [3]: 0.68
- Activity_index [20]: 0.61
- Activity_index [21]: 0.42
- Activity_index [22]: 0.34
- Activity_index [23]: 0.76
- Activity_index [24]: 0.79
- Activity_index [35]: 0.72
- Activity_index [36]: 1
- Activity_index [25]: 0.82
- Activity_index [26]: 0.77
- Activity_index [37]: 1.3
- Activity_index [38]: 0.87
- Retention_time [27]: 4.12 min

SMILES: Cl.Cl.O=c1c2ccc(Cl)cc2oc2c(CN3CCN(CCO)CC3)cccc12
- Activity (Mus musculus [32]): 30%

SMILES: O=c1c2ccccc2oc2c(CN3CCN(c4ccccc4)CC3)cccc12
- inhibition [5]: 88%

SMILES: COc1ccccc1N1CCN(Cc2cccc3c(=O)c4ccccc4oc23)CC1
- inhibition [5]: 70%

Further lines, with some results ahead:

- inhibition [5]: 50%
- AUC(0-t) at 8 h [7]: 334 ng·h/mL
- half-life [8]: 126 min
- MRT [9]: 129 min
- Cmax [10]: 136 ng/mL
- Tmax [11]: 15 min
- Vd/F [12]: 41.3 L/kg
- CL/F [13]: 226 mL/min/kg
- Kp at 8 h [14]: 31.6
- AUCt [15]: 633023 ng·min/g
- half-life [16]: 159 min
- MRT [17]: 152 min
- Cmax [18]: 3690 ng/mL
- Tmax [19]: 30 min
- Retention_time [27]: 4.64 min
SMILES: CN1CCN(Cc2ccc3oc4ccc(Cl)cc4c(=O)c3c2)CC1
- Activity (Mus musculus [4]): 24.7%
- Activity (Mus musculus [6]): 37.8%
- Activity_index [3]: 1.21
- Activity_index [20]: 0.43
- Activity_index [21]: 2.08
- Activity_index [22]: 2.93
- Activity_index [23]: 1.04
- Activity_index [24]: 0.78
- Activity_index [25]: 1.04
- Activity_index [26]: 0.86
- Activity (Mus musculus [28]): inactive
- Activity_index [29]: Dose-dependent effect

- inhibition [5]: 41%
SMILES: COc1ccc2c(=O)c3cccc(CN4CCN(Cc5ccccc5)CC4)c3oc2c1

- inhibition [5]: 75%
SMILES: O=c1c2ccc(Cl)cc2oc2c(CN3CCN(c4ccccc4)CC3)cccc12

- inhibition [5]: 43%
SMILES: O=c1c2cc(Cl)ccc2oc2ccc(CN3CCN(CCO)CC3)cc12

- inhibition [5]: 39%
SMILES: O=c1c2ccc(Cl)cc2oc2ccc(CN3CCN(CCO)CC3)cc12

- inhibition [5]: 0%
- AUC(0-t) at 8 h [7]: 215 ng·h/mL
- half-life [8]: 48.3 min
- MRT [9]: 40.3 min
- Cmax [10]: 462 ng/mL
- Tmax [11]: 15 min
- Vd/F [12]: 26.9 L/kg
- CL/F [13]: 386 mL/min/kg
- Kp at 8 h [14]: 4.85
- AUCt [15]: 62578 ng·min/g
- half-life [16]: 143 min
- MRT [17]: 24.1 min
- Cmax [18]: 2630 ng/mL
- Tmax [19]: 15 min
- Retention_time [27]: 3.05 min
SMILES: Cl.Cl.O=c1c2ccccc2oc2c(CN3CCN(CCO)CC3)cccc12
- Activity (Mus musculus [32]): 25.6%
- Activity (Mus musculus [6]): 38.1%
- Activity_index [3]: 0.69
- Activity_index [20]: 0.79
- Activity_index [21]: 0.46
- Activity_index [22]: 0.31
- Activity_index [23]: 1.34
- Activity_index [24]: 0.86
- Activity_index [35]: 0.52
- Activity_index [36]: 0.72
- Activity_index [25]: 0.74
- Activity_index [26]: 0.54
- Activity_index [37]: 0.39
- Activity_index [38]: 0.26

- inhibition [5]: 3%
SMILES: CCOC(=O)N1CCN(Cc2cccc3c(=O)c4ccccc4oc23)CC1

- Ki [1]: 561 nM
SMILES: COc1ccc2c(=O)c3cc(CN4CCN(c5ccccc5OC)CC4)ccc3oc2c1.Cl
- Activity (Mus musculus [2]): 32%

- inhibition [5]: 75%
SMILES: COc1ccc(OCCCN2CCN(Cc3ccc4oc5cc(OC)ccc5c(=O)c4c3)CC2)cc1
